According to patent publication US10221426B2, “Constitutively active PYR/PYL receptor proteins for improving plant stress tolerance” (The Regents of the University of California, priority 2009, dated 2019):

Key:
PYR1-HAB1 = target: T1, PYR1-HAB1 (Arabidopsis thaliana, UniProt O49686); assay: Yeast two-hybrid BD-PYR1 / AD-HAB1 interaction, X-gal stain; format: cell-based; conditions: 10 μM, except epi-brassinolide (50 nM)
T1 construct: the Pyr1 open reading frame was PCR amplified from genomic DNA; expressed in transfected cells; host or cells: yeast strain Y190
T1 sequence (O49686 1-191): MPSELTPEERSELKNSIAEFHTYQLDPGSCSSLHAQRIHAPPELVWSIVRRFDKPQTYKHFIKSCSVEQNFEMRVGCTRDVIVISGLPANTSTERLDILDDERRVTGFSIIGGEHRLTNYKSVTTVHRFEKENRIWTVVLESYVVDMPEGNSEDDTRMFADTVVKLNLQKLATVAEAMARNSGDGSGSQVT
T1 sequence (Q9CAJ0 23-511 partner): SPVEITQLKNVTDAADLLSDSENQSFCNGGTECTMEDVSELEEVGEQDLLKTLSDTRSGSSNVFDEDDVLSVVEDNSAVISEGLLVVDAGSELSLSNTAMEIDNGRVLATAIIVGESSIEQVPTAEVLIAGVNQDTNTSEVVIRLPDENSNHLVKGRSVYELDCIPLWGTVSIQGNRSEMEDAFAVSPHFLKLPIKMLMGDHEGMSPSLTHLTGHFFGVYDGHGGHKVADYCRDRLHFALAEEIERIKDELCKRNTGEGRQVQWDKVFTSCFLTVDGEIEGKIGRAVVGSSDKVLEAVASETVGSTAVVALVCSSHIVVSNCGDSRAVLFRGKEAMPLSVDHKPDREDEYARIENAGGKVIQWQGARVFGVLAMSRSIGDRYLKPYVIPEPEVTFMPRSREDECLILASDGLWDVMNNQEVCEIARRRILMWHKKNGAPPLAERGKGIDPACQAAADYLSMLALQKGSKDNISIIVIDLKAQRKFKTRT
Procedure: (§1) Given that PYR1 is necessary for pyrabactin action and is a predicted ligand-binding protein, we hypothesized that pyrabactin agonizes ABA signaling by inducing a protein-protein interaction between PYR1 and a downstream effector. To test this, ˜2 million prey cDNA clones were screened against a PYR1 Y2H bait construct on media containing 10 μM pyrabactin. To create the PYR1 Y2H bait construct, the Pyr1 open reading frame was PCR amplified from genomic DNA and cloned to pGem-T easy vector (Promega). After sequence confirmation, the Pyr1 ORF was then cloned in-frame between EcoRI and SalI sites of the pBD-GAL4 Cam vector (Stratagene) and transformed into yeast strain Y190. For the screen, an etiolated seedling cDNA library (J. Kim, K., Harter, A., Theologis, Proc Natl Acad Sci USA 94, 11786 (Oct. 28, 1997)) (ABRC stock CD4-22) was used. The cDNA library was first converted from phage to plasmid DNA, yielding 7.6×10^7 transformants. Plasmid DNA prepared from library was then used to transform Y190 as described in the GAL4 Two-Hybrid system manual (Stratagene). For each screen, 40 μg of prey plasmid was transformed into 1 ml of competent Y190 cell harboring bait construct and then grown on SD agar plates lacking His, Leu, and Trp, but containing 15 mM 3-AT and 10 μM pyrabactin. After 4 days incubation at 30° C., well-grown colonies were rescued and interactions validated using filter lift assay or chloroform-agarose overlay method and X-Gal staining. This identified two pyrabactin-dependent hits which sequencing determined encoded cDNAs for the PP2C HAB1, a close relative of the well-characterized ABA response factor ABI1 (A. Saez et al., The Plant Journal 37, 354 (2004); N. Leonhardt et al., THE PLANT CELL 16, 596 (2004)). Next, Y2H strains expressing an AD-HAB1 fusion protein and a BD-PYR1 fusion protein were grown on plates and tested for interactions in response to various compounds, all at 10 μM except for epi-brassinolide (50 nM) and dimethyl sulfoxide (DMSO) (carrier solvent, 1%). […] Thus, PYR1 interacts with HAB1 in a (+)-ABA dependent fashion.

PYL2-HAB1 = target: T2, PYL2-HAB1 (Arabidopsis thaliana, UniProt O80992); assay: Yeast two-hybrid BD-PYL2 / AD-HAB1 interaction, X-gal stain; format: cell-based; conditions: 10 μM
T2 construct: BD-PYR/PYL fusion proteins were constructed in the same manner as for BD-PYR1 above; expressed in transfected cells; host or cells: yeast (Y190, as for BD-PYR1)
T2 sequence (O80992 1-190): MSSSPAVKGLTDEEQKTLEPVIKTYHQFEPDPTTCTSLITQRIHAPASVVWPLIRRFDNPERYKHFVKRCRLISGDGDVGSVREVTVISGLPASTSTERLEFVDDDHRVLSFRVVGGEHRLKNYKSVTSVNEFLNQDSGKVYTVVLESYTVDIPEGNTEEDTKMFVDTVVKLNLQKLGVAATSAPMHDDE
T2 sequence (Q9CAJ0 23-511 partner): T1 sequence (Q9CAJ0 23-511 partner)
Procedure: as §1, with “fashion. […]” for “fashion.”

[1] = target: T3, HAB1 in the presence of PYL4 (Arabidopsis thaliana, UniProt O80920); assay: PP2C phosphatase assay (pNPP), GST-HAB1 in the presence of PYL4; format: biochemical; conditions: recombinant PYL4 refolded from inclusion bodies
T3 construct: vector pHB3; made in house
T3 sequence (O80920 1-207): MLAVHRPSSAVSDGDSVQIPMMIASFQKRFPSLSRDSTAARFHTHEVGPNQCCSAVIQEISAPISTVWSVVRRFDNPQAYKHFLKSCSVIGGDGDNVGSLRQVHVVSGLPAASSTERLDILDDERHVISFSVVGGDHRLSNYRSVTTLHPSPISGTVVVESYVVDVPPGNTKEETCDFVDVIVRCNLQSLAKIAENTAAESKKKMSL
T3 sequence (Q9CAJ0 23-511 partner): T1 sequence (Q9CAJ0 23-511 partner)

PYL1-HAB1 = target: T4, PYL1-HAB1 (Arabidopsis thaliana, UniProt Q8VZS8); assay: Yeast two-hybrid BD-PYL1 / AD-HAB1 interaction, X-gal stain; format: cell-based; conditions: 10 μM
T4 construct: BD-PYR/PYL fusion proteins were constructed in the same manner as for BD-PYR1 above; expressed in transfected cells; host or cells: yeast (Y190, as for BD-PYR1)
T4 sequence (Q8VZS8 1-221): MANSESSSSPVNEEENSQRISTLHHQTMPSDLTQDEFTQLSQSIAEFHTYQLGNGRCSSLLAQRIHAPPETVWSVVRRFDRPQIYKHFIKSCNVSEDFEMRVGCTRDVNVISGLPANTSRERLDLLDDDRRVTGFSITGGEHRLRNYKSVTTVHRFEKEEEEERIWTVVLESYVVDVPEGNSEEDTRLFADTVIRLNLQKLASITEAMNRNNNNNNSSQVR
T4 sequence (Q9CAJ0 23-511 partner): T1 sequence (Q9CAJ0 23-511 partner)
Procedure: Given that PYR1 is necessary for pyrabactin action and is a predicted ligand-binding protein, we hypothesized that pyrabactin agonizes ABA signaling by inducing a protein-protein interaction between PYR1 and a downstream effector. To test this, ˜2 million prey cDNA clones were screened against a PYR1 Y2H bait construct on media containing 10 μM pyrabactin. To create the PYR1 Y2H bait construct, the Pyr1 open reading frame was PCR amplified from genomic DNA and cloned to pGem-T easy vector (Promega). After sequence confirmation, the Pyr1 ORF was then cloned in-frame between EcoRI and SalI sites of the pBD-GAL4 Cam vector (Stratagene) and transformed into yeast strain Y190. For the screen, an etiolated seedling cDNA library (J. Kim, K., Harter, A., Theologis, Proc Natl Acad Sci USA 94, 11786 (Oct. 28, 1997)) (ABRC stock CD4-22) was used. The cDNA library was first converted from phage to plasmid DNA, yielding 7.6×10^7 transformants. Plasmid DNA prepared from library was then used to transform Y190 as described in the GAL4 Two-Hybrid system manual (Stratagene). […] This identified two pyrabactin-dependent hits which sequencing determined encoded cDNAs for the PP2C HAB1, a close relative of the well-characterized ABA response factor ABI1 (A. Saez et al., The Plant Journal 37, 354 (2004); N. Leonhardt et al., THE PLANT CELL 16, 596 (2004)). […]

CC1=CC(=O)CC(C)(C)C1(O)/C=C/C(C)=C\C(=O)O (single isomer, unassigned; (+)) [(+)-ABA]
PYR1-HAB1 interaction by X-gal stain (PYR1-HAB1): strong interactions | PYL2-HAB1 interaction by X-gal stain (PYL2-HAB1): respond | inhibition of HAB1 phosphatase activity in the presence of PYL4 [1]: inhibits HAB1 phosphatase activity

CC1=CC(=O)CC(C)(C)[C@@]1(O)/C=C/C(C)=C\C(=O)O [ABA, Abscisic acid]
PYL1-HAB1 interaction by X-gal stain (PYL1-HAB1): interact with HAB1 in an ABA-stimulated manner | PYL2-HAB1 interaction by X-gal stain (PYL2-HAB1): interact with HAB1 in an ABA-stimulated manner | inhibition of HAB1 phosphatase activity in the presence of PYL4 [1]: saturable inhibition

O=S(=O)(NCc1ccccn1)c1ccc(Br)c2ccccc12 [pyrabactin]
PYR1-HAB1 interaction by X-gal stain (PYR1-HAB1): promotes interactions | PYL1-HAB1 interaction by X-gal stain (PYL1-HAB1): promotes interactions
